Measurements reported in ChEMBL document CHEMBL3507680, “University of Dundee, Gates Library screen for HepG2 cell viability”.

assay: Human HepG2 cell viability assay in 384 well format; assay type: toxicity, cell-based; set-up: dose 125 nL, time 70.5 hour; cytotoxicity at 70.5 h: concentration not given beside the values; details: HepG2 cells, read-out: Inhibition

Row | SMILES | cytotoxicity at 70.5 h
1 | Cc1nc(CN2CCc3cc(C(=O)O)c(N(C)C)nc3CC2)cs1 | -5.8%
2 | Cc1cccc(C)c1OCCNC(=O)C(C)n1cncn1 (centres undefined) | -11.4%
3 | N#Cc1c(N2CCN(CC3CCOC3)CC2)nc2ccccn12 (centres undefined) | -1.45%
4 | Cc1c(C(=O)N2CCN(c3ccccn3)CC2)n(C)c2ccc(Cl)cc12 | -13.6%
5 | CS(=O)(=O)c1ccc(CNC[C@H]2COCc3nc4cccnc4n32)cc1 | -1.94%
6 | COCCn1cc(NC(=O)NC(C)Cc2c(F)cccc2F)cn1 (centres undefined) | 12.3%
7 | Fc1ccc2[nH]c(C3CCCN3CCc3ccccn3)nc2c1 (centres undefined) | -8.26%
8 | Cc1nn(C)c2nc(-c3ccccn3)nc(NCCCOC(C)C)c12 | -0.266%
9 | Cc1cc(C)cc(CN2CCC3(CC2)CC(Nc2ncccn2)CO3)c1 (centres undefined) | -68.4%
10 | CN(C)C(=O)CN1CCC2(CCCN(Cc3cccs3)C2)C1=O (centres undefined) | -12.9%
11 | Cc1[nH]ccc1C(=O)N1CCC(c2nnc(Cn3cccn3)n2C)CC1 | -0.908%
12 | CC1CN(CC(=O)Nc2nccs2)CCN1Cc1nccn1C (centres undefined) | -6.31%
13 | CC(C)n1nc(CN2CCCCC2)c2c1CN(C(=O)c1ccno1)C2 | -8.4%
14 | N#Cc1ccccc1CN1CCCC(c2nccn2CC2CCC2)C1 (centres undefined) | -11%
15 | CCc1nnc2n1CCN(C(=O)c1cnc(-c3cccs3)s1)C2 | -7.22%
16 | CC(C)c1cc(C2CCN(C(=O)Cn3cnnn3)CC2)[nH]n1 | -6.46%
17 | Fc1ccccc1Cc1noc(CN2CCCC(CN3CCCC3)C2)n1 (centres undefined) | -2.47%
18 | CCN(CC)C(=O)c1nnsc1-c1ccc(C)cc1 | -8.98%
19 | CCn1c(C)cc(C(=O)N2CCCC(n3ccnc3C)C2)c1C (centres undefined) | -6.2%
20 | NC(=O)CN(C(=O)Cc1ccc(C(F)(F)F)cc1)C1CCCC1 | -7.24%
21 | CC/N=c1\nc(NCC)nc2n1C(O)(Nc1cccc(C)c1C)CS2 (centres undefined) | -6.29%
22 | CCn1c(N)nc2cc(C(=O)N3CCC(N4CCCC4)CC3)cnc21 | -5.99%
23 | CC1CN(C)CCN1C(=O)c1cccn1Cc1cccnc1 (centres undefined) | -7.82%

Row | SMILES | cytotoxicity at 70.5 h
24 | O=S(=O)(C1CC1)N1CCc2ncc(Cn3cccn3)n2CC1 | -1.43%
25 | O=C(NC1CCC1)[C@H]1C[C@@H]2[C@@H](C1)OCCN2CC1CC1 | 0.808%
26 | CC(NC(=O)Nc1ccncc1)c1ccc2c(c1)CC(=O)N2 (centres undefined) | -7.01%
27 | CC(=O)NC1CCCN(C(=O)c2ccc(Br)cc2O)C1 (centres undefined) | -8.57%
28 | O=C(C[S+]([O-])Cc1csc(C2CCCC2)n1)NC1CCCC1 (centres undefined) | -1.25%
29 | CC(C)c1nc2c(n1C)CCN(CC(=O)NCc1ccccn1)C2 | -0.491%
30 | Cc1cccc(CN2CCCCC2c2n[nH]cc2-c2cc(C)no2)c1 (centres undefined) | -6.6%
31 | Cc1cccc(COc2ccc(NC(=O)C(C)NC(N)=O)c(C)c2)c1 (centres undefined) | -9.19%
32 | Cc1noc(COCC(=O)Nc2cc(C)c(Br)cn2)n1 | 4.04%
33 | CC(=O)N1CCOC2(CCCN(C(=O)c3ccc(Cl)cc3)C2)C1 (centres undefined) | -15.6%
34 | COc1ccc(S(=O)(=O)N[C@H]2CN(C(C)=O)C[C@@H]2C2CC2)cc1C | -14.2%
35 | Cc1noc(CNC2CCCN(Cc3noc(C4CC4)n3)C2)n1 (centres undefined) | -2.29%
36 | CN(C(=O)C(c1c(F)cccc1Cl)N(C)C)c1nccs1 (centres undefined) | 3.15%
37 | CC(C)c1noc(C[S+]([O-])CC(=O)Nc2ccc(F)c(F)c2)n1 (centres undefined) | 10.4%
38 | CC(C)CC(=O)NC[C@H]1CC[C@H](C(c2ccccn2)N(C)C)CC1 (some centres undefined) | -3.76%
39 | Cc1ccc(OCC(=O)NCC(C)C)nc1 | -3.31%
40 | O=C(NCCN1CCOCC1)NCc1cccnc1-n1cccn1 | -2.89%
41 | CCn1nc(-c2ccccc2F)ccc1=O | -8.76%
42 | NC(=O)C1CCN(Cn2nc(-c3ccc(F)cc3)oc2=O)CC1 | 5.9%
43 | CNc1nc(CNC(=O)Nc2cccc(C)c2Cl)cs1 | -1.43%
44 | CCc1ccc(S(=O)(=O)NCCC(O)c2ccoc2)s1 (centres undefined) | -10.1%
45 | CCOC(=O)c1ccc(NC(=O)Cn2cc(I)cn2)cc1 | -4.39%
46 | CCc1noc(CN2CCN(C(=O)C3CC3)CC2)n1 | -9.23%

Row | SMILES | cytotoxicity at 70.5 h
47 | Cc1ccccc1C(=O)N1CC[C@@H](N(C)C)[C@@H]1Cc1cnn(C)c1 | 25.4%
48 | O=C(CO)N1CCCC(c2cc(C(F)(F)F)[nH]n2)C1 (centres undefined) | -2.3%
49 | COCCN1CCCC2(CCN(Cc3noc(C4CCCC4)n3)C2)C1=O (centres undefined) | -4.8%
50 | N#Cc1cccc(S(=O)(=O)CCN2CCOC2=O)c1 | -8.07%
51 | CCC1=N[C@@]2(CC[C@@H]3CN(C(=O)NCc4cccc(F)c4)C[C@@H]32)C(=O)N1 | -5.99%
52 | Cc1cc(C(=O)N2CCc3nc(C4CCCCN4)ncc3C2)cs1 (centres undefined) | -7.25%
53 | O=C(NC1CC1)c1ccn(COc2c(Cl)cccc2Cl)n1 | -14.6%
54 | CN1CCN2CCN(C(=O)c3cnn4cc(CCO)cnc34)CC2C1 (centres undefined) | -8.48%
55 | CC(C)c1cc(C(=O)N2CCCC2c2nc(-c3ccccc3)no2)[nH]n1 (centres undefined) | -0.676%
56 | Cc1cc(CN2CCN(C(=O)Nc3cccnc3)CC2)on1 | -7.67%
57 | Cc1cc(N2CC(c3n[nH]c4nccnc34)C2)ncn1 | -9.37%
58 | Cc1nnc(CN(C)CC(=O)N2CCCC(C(F)(F)F)C2)n1C (centres undefined) | 16.8%
59 | CC(=O)c1cc(Br)cc(F)c1OCC(=O)NC(C)C | -4.15%
60 | COc1cc(C(=O)Nc2c(C)noc2C)ccc1C | 1.7%
61 | CC(Nc1cccc2c1OCCO2)C(=O)Nc1ccc(S(N)(=O)=O)cc1 (centres undefined) | 25.1%
62 | c1cc(OCc2ccc3c(c2)OCO3)ccc1CNC1CC1 | 48%
63 | Cc1ccc2c(c1)CN(C(=O)c1cccs1)C(CN(C)C)CO2 (centres undefined) | -2.45%
64 | CC(C)Cc1noc(CN2CCN(c3nccs3)CC2)n1 | -3.87%
65 | Cc1ccc(CN2CCC3(C2)C(=O)N(CC(C)C)c2ccccc23)s1 (centres undefined) | -7.14%
66 | CC(C)Cc1noc(CN(C)C2CCCC2)n1 | 28.6%
67 | COCCNS(=O)(=O)c1ccc(Cl)c(C(=O)N(C)Cc2ccsc2)c1 | -5.32%
68 | O=C(C1CCOc2ccccc21)N1CCOc2cccc(F)c21 (centres undefined) | 4.13%
69 | Cc1cc(F)ccc1N1CCCC(NC(=O)CCc2ccncc2)C1 (centres undefined) | -23.5%

Row | SMILES | cytotoxicity at 70.5 h
70 | O=C(CN1CCCS1(=O)=O)Nc1cccc(COC2CCCCC2)c1 | -2.5%
71 | Cc1cnn(CC2CCCN2C(=O)c2n[nH]c(=O)c3ccccc23)c1 (centres undefined) | -7.98%
72 | CCSc1ncc(-c2cc(C3CC3)nc(N)c2C#N)cn1 | -4.52%
73 | O=C(COCc1ccccc1)N1CCCC(n2cncn2)C1 (centres undefined) | -20.7%
74 | CC1CC(=O)c2cnc3nc(N4CCOCC4)[nH]c(=O)c3c2C1 (centres undefined) | -15.8%
75 | Cc1nc(CN2CCCCC2Cn2cncn2)nc2ccccc12 (centres undefined) | 20.9%
76 | O=C(O)C[C@@H]1CCN(C(=O)C2CCCC2)C[C@@H]1CCN1CCCCC1 | -1.16%
77 | O=C(Cc1ccc2c(c1)OCC2)Nc1nc(C(F)(F)F)n[nH]1 | 0.788%
78 | CCN1CCC(c2nc3ccc(NC(C)C)cn3n2)CC1 | -0.678%
79 | CC(=O)NCc1noc2c1CN(Cc1cccs1)CC2 | -1.08%
80 | CCCn1cc(C(=O)N(C)Cc2nc(-c3ccccn3)no2)c(C)n1 | -8.48%
81 | O=C(N[C@@H]1CCN(C(=O)C2CCOCC2)C[C@H]1O)c1ccccn1 | -4.74%
82 | N#Cc1ccc(CN2CCN(c3ccncc3Cl)CC2=O)cc1 | -4.03%
83 | Cc1ccc(-n2cc(CN3CCOCC3)c(-c3cccc(C)c3)n2)cc1 | -2.44%
84 | CCOCc1nc(-c2ccc(F)cc2Cl)n(C)n1 | -15.1%
85 | COCCO[C@@H]1CCN(Cc2csc(C)n2)[C@H]1Cc1ccccc1 | -8.53%
86 | Cc1cnc(CNc2ccccc2CN(C)C(=O)c2cccs2)o1 | 18.4%
87 | CCC1CCCCN1C(=O)CCn1cnc2sccc2c1=O (centres undefined) | -11.1%
88 | O=S(=O)(N1CCOCC1)N1CCC(Oc2cnccn2)CC1 | 0.596%
89 | CC(C)CC1SCC(=O)Nc2c1cnn2-c1ccccc1F (centres undefined) | -22.8%
90 | CC(NCCCn1cccn1)c1ccc(N2CCCS2(=O)=O)cc1 (centres undefined) | -4.88%
91 | CCn1c(C)nnc1SCCNc1cc(N2CCOCC2)ncn1 | -18.8%
92 | Cc1nn(C)c(N(C)C)c1CNCc1cccnc1N(C)C | 23.9%

Row | SMILES | cytotoxicity at 70.5 h
93 | CNC(=O)Cn1ccc2ccc(NC(=O)NC(C)C(C)C)cc21 (centres undefined) | -9.08%
94 | O=C1COC2(CCN(CC3CC3)CC2)CN1c1ccccc1 | -9.15%
95 | CC(O)(CCc1ccccc1)CNC(=O)c1ccc(F)cc1 (centres undefined) | 14.3%
96 | O=C(Cc1cnn(-c2ccccc2)n1)NC(C1CC1)C1CC1 | 0.511%
97 | O=C(C(CNCc1cccnc1)c1ccccc1)N1CCOCC1 (centres undefined) | -8.37%
98 | CCCn1cc(NC(=O)c2cccnc2O)ccc1=O | -1.07%
99 | Cc1cccc(NC(=O)C2CCCN2C(=O)c2ccco2)c1C (centres undefined) | 11.4%
100 | CN(C)C(=O)N1CCCC2(CCN(Cc3ccncc3)C2)C1 (centres undefined) | -7.12%
101 | COCCN1CCC2(CCCN(Cc3ccoc3)C2)C1=O (centres undefined) | 12.2%
102 | O=C1NCC(C(=O)Nc2ccc(=O)n(Cc3ccccc3Cl)c2)N1 (centres undefined) | -21.3%
103 | CCCc1nc(N2CCCN(c3ccncc3)CC2)c2cnn(C)c2n1 | -11.6%
104 | COc1cc(N2CCC3(CCCN3Cc3cnn(C)c3)CC2)ncn1 | -3.32%
105 | Cc1ccc2c(CC(=O)N3C[C@@H](O)[C@H](N(C)C)C3)coc2c1 | -5.65%
106 | CN(CCCc1nccn1C)C(=O)C1CCN(C(=O)C2CCCC2)CC1 | 4.09%
107 | CC(=O)c1c(C)nn(CC(=O)N2Cc3cnc(CC(C)C)nc3C2)c1C | -8.3%
108 | CC(=O)NCc1cc2n(n1)CCN(Cc1ccccc1OC(F)(F)F)C2 | -3.35%
109 | c1ccc(CN2CCC(CCNc3ncnc4c3CCNCC4)C2)cc1 (centres undefined) | -2.61%
110 | Cn1cc(S(=O)(=O)N2CCCC2Cn2ccnc2)cc1C(N)=O (centres undefined) | -5.85%
111 | CN(C)CC1CN(Cc2cccc(C(=O)N(C)C)c2)CCO1 (centres undefined) | -1.2%
112 | CCCNC(=O)Cn1nc(C)c2cnn(C(C)(C)C)c2c1=O | 19.1%
113 | O=C(Nc1ccc(CCN2CCC(O)CC2)cc1)C1CCCCC1 | -2.92%
114 | Nc1cc(CCC2CN(Cc3ccc(C(=O)O)cc3)CCO2)ccn1 (centres undefined) | 23.8%
